The record followed here is patent US20120129872A1, “FUSED HETEROARYL INHIBITORS OF PRO-MATRIX METALLOPROTEINASE ACTIVATION” (priority 2010, published 2012).

The structures appear in SMILES notation. Structures can show the parent of a compound that is named as a salt.

For assay [1], the target named is T1, proMMP9(20-445;ΔFnII) (SEQ ID NO:6) (Homo sapiens, UniProt P14780, DEL216-390).
T1 construct: start methionine (N); made in house; host or cells: E. coli BL21(DE3) RIL
T1 sequence (P14780 with tags, fused parts or gaps DEL216-390): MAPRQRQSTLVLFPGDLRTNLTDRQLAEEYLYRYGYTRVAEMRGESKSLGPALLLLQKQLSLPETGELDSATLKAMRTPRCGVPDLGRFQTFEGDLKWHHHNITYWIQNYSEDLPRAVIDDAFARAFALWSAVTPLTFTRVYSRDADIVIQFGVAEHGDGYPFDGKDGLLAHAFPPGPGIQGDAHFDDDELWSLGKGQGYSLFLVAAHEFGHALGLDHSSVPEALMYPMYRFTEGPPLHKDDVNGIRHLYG
Nature of the assay: ThermoFluor binding assay with proMMP9(20-445;ΔFnII). As to the method:
(§1) The ThermoFluor® (TF) assay is a 384-well plate-based binding assay that measures thermal stability of proteins (Biomol Screen 2001, 6, 429-40; Biochemistry 2005, 44, 5258-66). The experiments were carried out using instruments available from Johnson & Johnson Pharmaceutical Research & Development, LLC. TF dye used in all experiments was […] (1,8-ANS) (Invitrogen: A-47).
(§2) Compounds were arranged in a pre-dispensed plate (Greiner Bio-one: 781280), wherein compounds were serially diluted in 100% DMSO across 11 columns within a series. Columns 12 and 24 were used as DMSO reference and contained no compound. For multiple compound concentration-response experiments, the compound aliquots ([…]) were robotically predispensed directly into black 384-well polypropylene PCR microplates (Abgene: TF-0384/k) using a Cartesian Hummingbird liquid handler (DigiLab, Holliston, Mass.). Following compound dispense, protein and dye solutions were added to achieve the final assay volume of 3 μL. The assay solutions were overlayed with 1 μL of silicone oil (Fluka, type DC 200: 85411) to prevent evaporation.
(§3) Assay plates were robotically loaded onto a thermostatically controlled PCR-type thermal block and then heated from 40 to 90° C. at a ramp-rate of 1° C./min for all experiments. Fluorescence was measured by continuous illumination with UV light (Hamamatsu LC6) supplied via fiber optics and filtered through a band-pass filter (380-400 nm; >60D cutoff). Fluorescence emission of the entire 384-well plate was detected by measuring light intensity using a CCD camera (Sensys, Roper Scientific) filtered to detect 500±25 nm, resulting in simultaneous and independent readings of all 384 wells. A single image with 20-sec exposure time was collected at each temperature, and the sum of the pixel intensity in a given area of the assay plate was recorded vs temperature and fit to standard equations to yield the Tm (J Biomol Screen 2001, 6, 429-40).
(§4) Thermodynamic parameters necessary for fitting compound binding for each proMMP were estimated by differential scanning calorimetry (DSC) and from ThermoFluor® data. The heat capacity of unfolding for each protein was estimated from the molecular weight and from ThermoFluor® dosing data.
ThermoFluor® with proMMP9(20-445;ΔFnII (SEQ ID NO:6)
The protein sample preparations included a desalting buffer exchange step via a PD-10 gravity column (GE Healthcare). The desalting buffer exchange was performed prior to diluting the protein to the final assay concentration of 2.8 μM proMMP9(20-445;ΔFnII) (SEQ ID NO:6). The concentration of proMMP9(20-445;ΔFnII) (SEQ ID NO:6) was determined spectrophotometrically based on a calculated extinction coefficient of ε280=39880 M^−1 cm^−1, a calculated molecular weight of 28.2 kDa, and calculated pI of 5.5. ThermoFluor® reference conditions were define as follows: 80 μg/mL (2.8 μM) proMMP9(20-445;ΔFnII) (SEQ ID NO:6), 50 μM 1,8-ANS, pH 7.0 Buffer (50 mM HEPES pH 7.0, 100 mM NaCl, 0.001% Tween-20, 2.5 mM MgCl2, 300 μM CaCl2). The thermodynamic parameters for proMMP9(20-445;ΔFnII) (SEQ ID NO:6) are as follows: Tm (° C.)=72 (+/−0.1), ΔUH(Tm) (cal mol^−1)=160000(+/−5000), ΔUS(Tm) (cal mol^−1 K^−1)=434, ΔUCp (cal mol^−1 K^−1)=2400.
(In DSF a fluorescence change marks the thermal transition of the protein.)

Assay [2] addresses T2, proMMP9(67-444;ΔFnII) (SEQ ID NO:5) (Homo sapiens, UniProt P14780, DEL216-390).
T2 construct: start methionine (N); made in house; host or cells: E. coli BL21(DE3) RIL
T2 sequence (P14780 with tags, fused parts or gaps DEL216-390): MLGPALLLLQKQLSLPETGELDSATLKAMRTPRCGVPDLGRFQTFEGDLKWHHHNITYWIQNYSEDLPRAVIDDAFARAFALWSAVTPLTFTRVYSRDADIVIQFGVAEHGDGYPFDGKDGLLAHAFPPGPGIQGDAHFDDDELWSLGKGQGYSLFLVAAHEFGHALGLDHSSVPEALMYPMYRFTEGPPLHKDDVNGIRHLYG
Description: ThermoFluor binding assay with proMMP9(67-444;ΔFnII). As to the method: as §1, §2, §3, §4
ThermoFluor® with proMMP9(67-444;ΔFnII (SEQ ID NO:5)
The protein sample preparations had to include a desalting buffer exchange step via a PD-10 gravity column (GE Healthcare). The desalting buffer exchange was performed prior to diluting the protein to the final assay concentration of 3.5 μM proMMP9(67-444;ΔFnII) (SEQ ID NO:5). The concentration of proMMP9(67-444;ΔFnII) (SEQ ID NO:5) was determined spectrophotometrically based on a calculated extinction coefficient of ε280=33900 M^−1 cm^−1, a calculated molecular weight of 22.6 kDa, and calculated pI of 5.20. ThermoFluor® reference conditions were defined as follows: 80 μg/mL (3.5 μM) proMMP9(67-444;ΔFnII) (SEQ ID NO:5), 50 μM 1,8-ANS, pH 7.0 Buffer (50 mM HEPES pH 7.0, 100 mM NaCl, 0.001% Tween-20, 2.5 mM MgCl2, 300 μM CaCl2). The thermodynamic parameters for proMMP9(67-444;ΔFnII) (SEQ ID NO:5) are as follows: Tm (° C.)=63 (+/−0.1), ΔUH(Tm) (cal mol^−1)=105000(+/−5000), ΔUS(Tm) (cal mol^−1 K^−1)=450, ΔuCp (cal mol^−1 K^−1)=2000.

Assay [3] concerns the target T3, full-length proMMP9(1-707) (SEQ ID NO:1), activation by catalytic MMP3 (Homo sapiens, UniProt P14780, R574P).
T3 construct: made in house; host or cells: HEK293 (transient, secreted)
Description: proMMP9/MMP3 P126 Activation Assay. The class given is biochemical. The method, then:
proMMP9/MMP3 P126 Activation Assay
The reaction volume was 50 μL. […] Reactivity of residual MMP3 towards P-126 substrate was minimal under these conditions.

T3 sequence (P14780 20-707 R574P): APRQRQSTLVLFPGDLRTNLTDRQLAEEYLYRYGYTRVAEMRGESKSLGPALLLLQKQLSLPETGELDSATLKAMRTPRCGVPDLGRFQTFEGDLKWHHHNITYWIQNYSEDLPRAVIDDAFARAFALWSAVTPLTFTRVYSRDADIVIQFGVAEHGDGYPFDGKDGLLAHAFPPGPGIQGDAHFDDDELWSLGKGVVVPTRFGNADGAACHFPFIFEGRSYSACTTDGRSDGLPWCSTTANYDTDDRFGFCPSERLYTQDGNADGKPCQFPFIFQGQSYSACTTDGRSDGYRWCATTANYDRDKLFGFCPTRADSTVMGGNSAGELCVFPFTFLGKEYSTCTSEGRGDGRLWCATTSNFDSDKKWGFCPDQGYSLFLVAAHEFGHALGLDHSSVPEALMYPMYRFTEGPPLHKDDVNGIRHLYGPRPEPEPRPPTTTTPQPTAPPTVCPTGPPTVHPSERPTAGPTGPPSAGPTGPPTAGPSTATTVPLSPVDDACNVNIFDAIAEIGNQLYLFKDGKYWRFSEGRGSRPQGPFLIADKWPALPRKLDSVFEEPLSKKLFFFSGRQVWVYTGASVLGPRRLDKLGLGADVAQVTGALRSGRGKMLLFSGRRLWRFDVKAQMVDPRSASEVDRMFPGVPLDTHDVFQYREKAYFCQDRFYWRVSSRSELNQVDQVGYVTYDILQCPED

`CC(C)Oc1ccc(S(N)(=O)=O)cc1Nc1nc(-c2ccc3c(cnn3C)c2)cs1` [Example 15, 4-Isopropoxy-3-[4-(1-methyl-1H-indazol-5-yl)-thiazol-2-ylamino]-benzenesulfonamide•TFA]: the values for the equilibrium dissociation constant (Kd) in assay [1] and in assay [2] were 110 nM and 280 nM, respectively. The IC50 – broadly, the point on the concentration scale where inhibition reaches its midpoint – in assay [3] stood at 550 nM.

As for `Cn1ncc2cc(-c3csc(Nc4cc(C(N)=O)ccc4OC(F)(F)F)n3)ccc21` [Example 16, 3-[4-(1-Methyl-1H-indazol-5-yl)-thiazol-2-ylamino]-4-trifluoromethoxy-benzamide•TFA], the Kd (as a rule, the free concentration of one partner at which half of the binding sites on the other are occupied at equilibrium, for simple one-to-one binding) in assay [1] worked out at 270 nM; in assay [2] it was 6700 nM. In assay [3], this compound showed an IC50 of about 2000 nM.

Turning to `CCn1cnc2ccc(-c3csc(Nc4cc(S(N)(=O)=O)ccc4OC(C)C)n3)cc21` [Example 27, 3-[4-(3-Ethyl-3H-benzoimidazol-5-yl)-thiazol-2-ylamino]-4-isopropoxy-benzenesulfonamide•TFA], the Kd in assay [1] amounted to 120 nM; in assay [2] it was 470 nM. Further, in assay [3], the IC50 worked out at 250 nM.

As for `Cc1nc2cc(-c3csc(Nc4cc(S(N)(=O)=O)ccc4OC(C)C)n3)ccc2[nH]1` [Example 18, 4-Isopropoxy-3-[4-(2-methyl-1H-benzoimidazol-5-yl)-thiazol-2-ylamino]-benzenesulfonamide•TFA], the results for the Kd in assay [1] and in assay [2] were 140 nM and 440 nM, respectively. This compound also yielded an IC50 in assay [3] of 360 nM.

With `CC(C)Oc1ccc(S(N)(=O)=O)cc1Nc1nc(-c2ccc3c(c2)nc(CO)n3C)cs1` [Example 29], the figures for the Kd in assay [1] and in assay [2] were 100 nM and 660 nM, respectively. The compound also showed an IC50 in assay [3] of 150 nM.

With `CC(C)Oc1ccc(S(N)(=O)=O)cc1Nc1nc(-c2ccc3[nH]c(N)nc3c2)cs1` [Example 34, 3-((4-(2-Amino-1H-benzo[d]imidazol-5-yl)thiazol-2-yl)amino)-4-isopropoxybenzenesulfonamide•TFA], the Kd in assay [1] was found to be 44 nM. The IC50 in assay [3] was 150 nM.

Take `COc1cc(C)c(C(N)=O)cc1Nc1nc(-c2ccc3c(c2)ncn3C)cs1` [Example 1, 4-Methoxy-2-methyl-5-[4-(1-methyl-1H-benzoimidazol-5-yl)-thiazol-2-ylamino]-benzamide]: the figures for the Kd in assay [1] and in assay [2] were 1700 nM and 7500 nM, respectively. Further, the IC50 in assay [3] is 2300 nM.

With `CC(C)Oc1ccc(S(N)(=O)=O)cc1Nc1nc(-c2ccc3c(c2)ncn3C)cs1` [Example 9, 4-Isopropoxy-3-[4-(1-methyl-1H-benzoimidazol-5-yl)-thiazol-2-ylamino]-benzenesulfonamide•HCl], the dissociation constant (Kd) in assay [1] turned out to be 260 nM; in assay [2], 2000 nM. Further, the IC50 in assay [3] is 150 nM.

In the case of `CCn1c(C)nc2cc(-c3csc(Nc4cc(S(N)(=O)=O)ccc4OC(C)C)n3)ccc21` [Example 17, 3-[4-(1-Ethyl-2-methyl-1H-benzoimidazol-5-yl)-thiazol-2-ylamino]-4-isopropoxy-benzenesulfonamide•HCl], the Kd stood at 212 nM in assay [1] and 850 nM in assay [2]. The compound also came in with a half-maximal inhibitory concentration (IC50) in assay [3] of 300 nM.

Turning to `CCCn1cnc2ccc(-c3csc(Nc4cc(S(N)(=O)=O)ccc4OC(C)C)n3)cc21` [Example 19, 4-Isopropoxy-3-[4-(3-propyl-3H-benzoimidazol-5-yl)-thiazol-2-ylamino]-benzenesulfonamide•TFA], the figures for the Kd in assay [1] and in assay [2] were 170 nM and 830 nM, respectively. Besides, the IC50 in assay [3] was 460 nM.

For the compound `CCn1cnc2cc(-c3csc(Nc4cc(S(N)(=O)=O)ccc4OC(C)C)n3)ccc21` [Example 25, 3-[4-(1-Ethyl-1H-benzoimidazol-5-yl)-thiazol-2-ylamino]-4-isopropoxy-benzenesulfonamide•TFA], the Kd in assay [1] was found to be 780 nM; in assay [2], 1600 nM. This compound also yielded an IC50 in assay [3] of 240 nM.

As for `CC(C)Oc1ccc(S(N)(=O)=O)cc1Nc1nc(-c2ccc3occc3c2)cs1` [Example 24, 3-(4-Benzofuran-5-yl-thiazol-2-ylamino)-4-isopropoxy-benzenesulfonamide•TFA], the results for the Kd in assay [1] and in assay [2] were 240 nM and 670 nM, respectively. This compound had an IC50 in assay [3] of 3400 nM.

For the compound `COc1ccc(S(N)(=O)=O)cc1Nc1nc(-c2ccc3c(c2)ncn3C)cs1` [Example 11, 4-Methoxy-3-[4-(1-methyl-1H-benzoimidazol-5-yl)-thiazol-2-ylamino]-benzenesulfonamide], the figures for the Kd in assay [1] and in assay [2] were 4800 nM and 11000 nM, respectively. The same compound registered an IC50 in assay [3] of 860 nM.

In turn, `CC(C)Oc1ccc(S(N)(=O)=O)cc1Nc1nc(-c2ccc3c(c2)nc(CN2CCN(C)CC2)n3C)cs1` [Example 30] had a Kd in assay [1] of 87 nM. The compound further came in with an IC50 in assay [3] of 82 nM.

As to `CC(C)Oc1ccc(S(N)(=O)=O)cc1Nc1nc(-c2ccc3c(c2)nc(CN(C)C)n3C)cs1` [Example 31, 3-((4-(2-((Dimethylamino)methyl)-1-methyl-1H-benzo[d]imidazol-5-yl)thiazol-2-yl)amino)-4-isopropoxybenzenesulfonamide•TFA], in assay [1], binding was characterised by a dissociation constant (Kd) of 52 nM. Besides, the IC50 in assay [3] worked out at 73 nM.

`CC(C)Oc1ccc(S(N)(=O)=O)cc1Nc1nc(-c2ccc3[nH]c(=O)[nH]c3c2)cs1` [Example 33]: the Kd in assay [1] was found to be 82 nM. This compound gave an IC50 in assay [3] of 170 nM.

Consider `CC(C)Oc1ccc(S(N)(=O)=O)cc1Nc1nc(-c2ccc3c(c2)nc(CN(C)CCN(C)C)n3C)cs1` [Example 32, 3-((4-(2-(((2-(Dimethylamino)ethyl)(methyl)amino)methyl)-1-methyl-1H-benzo[d]imidazol-5-yl)thiazol-2-yl)amino)-4-isopropoxybenzenesulfonamide•TFA], for which the Kd in assay [1] stood at 52 nM. For the same compound, the IC50 in assay [3] is 200 nM.
